# Measured values: patent US20200216416A1, “QUINOLINE COMPOUNDS AS INHIBITORS OF TAM AND MET KINASES” (Array BioPharma Inc., priority 2019, published 2020)
# Read-outs that look alike come from different tables or passages of the source.
# Legend:
# MDR1 (P-gp) = target: T1, MDR1 (P-gp) (Homo sapiens, UniProt P08183); test: MDR1 LLC-PK1 permeability assay; format: in vitro ADME; settings: pig, MDR1 transfected LLC-PK1 cells; for Papp at 2 h, 1 μM: permeability coefficient (Papp)
# T1 construct: expressed in transfected cells; host or cells: LLC-PK1
# T1 sequence (P08183 whole entry): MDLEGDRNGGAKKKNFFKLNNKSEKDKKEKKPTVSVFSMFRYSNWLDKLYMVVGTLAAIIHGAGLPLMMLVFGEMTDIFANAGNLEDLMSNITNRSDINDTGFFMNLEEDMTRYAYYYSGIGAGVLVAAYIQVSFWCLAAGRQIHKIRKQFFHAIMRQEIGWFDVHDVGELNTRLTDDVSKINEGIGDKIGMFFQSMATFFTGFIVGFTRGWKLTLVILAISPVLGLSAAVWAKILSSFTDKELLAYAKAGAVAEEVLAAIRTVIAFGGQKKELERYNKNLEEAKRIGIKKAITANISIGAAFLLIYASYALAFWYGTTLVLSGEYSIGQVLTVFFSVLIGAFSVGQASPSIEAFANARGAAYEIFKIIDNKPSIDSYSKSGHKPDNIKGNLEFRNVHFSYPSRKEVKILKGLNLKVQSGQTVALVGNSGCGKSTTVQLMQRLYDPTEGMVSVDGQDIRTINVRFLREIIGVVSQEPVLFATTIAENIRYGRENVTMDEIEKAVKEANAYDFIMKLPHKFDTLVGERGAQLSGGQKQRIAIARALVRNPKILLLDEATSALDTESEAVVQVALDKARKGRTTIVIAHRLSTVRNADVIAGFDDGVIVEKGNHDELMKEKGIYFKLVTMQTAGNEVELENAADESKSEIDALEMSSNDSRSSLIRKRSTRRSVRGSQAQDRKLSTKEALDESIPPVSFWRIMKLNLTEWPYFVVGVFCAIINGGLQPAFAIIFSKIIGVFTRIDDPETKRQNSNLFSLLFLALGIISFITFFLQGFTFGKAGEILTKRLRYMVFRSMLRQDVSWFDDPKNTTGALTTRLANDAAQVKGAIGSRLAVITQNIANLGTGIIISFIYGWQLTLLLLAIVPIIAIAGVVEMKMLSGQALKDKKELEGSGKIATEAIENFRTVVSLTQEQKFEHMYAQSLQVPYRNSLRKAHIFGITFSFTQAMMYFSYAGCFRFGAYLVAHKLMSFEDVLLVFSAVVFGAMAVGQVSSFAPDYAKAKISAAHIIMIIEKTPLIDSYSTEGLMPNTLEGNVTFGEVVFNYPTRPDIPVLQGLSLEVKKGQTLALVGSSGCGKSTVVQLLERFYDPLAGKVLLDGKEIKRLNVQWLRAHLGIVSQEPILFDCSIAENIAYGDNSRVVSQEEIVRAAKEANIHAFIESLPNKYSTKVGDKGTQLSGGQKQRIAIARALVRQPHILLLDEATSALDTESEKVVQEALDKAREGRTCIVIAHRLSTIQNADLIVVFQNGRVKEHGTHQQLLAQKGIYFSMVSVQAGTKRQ
# Procedure: MDR1 transfected LLC-PK1 cells were cultured and plated according to manufacturer's recommendations with the exception that the passage media contained only 2% fetal bovine serum to extend passage time out to seven days.
# Both positive and negative controls were used to assess functionality of P-gp efflux in the assay. Stock solutions for assay controls and the test article were prepared in DMSO for final test concentrations of 10 and 1 μM, respectively. Final organic concentration in the assay was 1%. All dosing solutions contained 10 μM lucifer yellow to monitor LLC-PK1 cell monolayer integrity.
# For the apical to basolateral determination (A to B), 75 μL of the test article in transport buffer were added to the apical side of the individual transwells and 250 μL of basolateral media, without compound or lucifer yellow, were added to each well. For the basolateral to apical determination (B to A), 250 μL of test article in transport buffer were added to each well and 75 μL transport buffer, without compound or lucifer yellow, were added to each transwell. All tests were performed in triplicate, and each compound was tested for both apical to basolateral and basolateral to apical transport. The plates were incubated for 2 hours on a Lab-Line Instruments Titer Orbital Shaker (VWR, West Chester, Pa.) at 50 rpm and 37° C. with 5% CO2. All culture plates were removed from the incubator and 50 μL of media were removed from the apical and basolateral portion of each well and added to 150 μL of 1 μM labetalol in 2:1 acetonitrile (acetonitrile): H2O, v/v.
# The plates were read using a Molecular Devices (Sunnyvale, Calif.) Gemini Fluorometer to evaluate the lucifer yellow concentrations at excitation/emission wavelengths of 425/535 nm. These values were accepted when found to be below 2% for apical to basolateral and 5% basolateral to apical flux across the MDR1-transfected LLC-PK1-transfected cell monolayers. The plates were sealed and the contents of each well analyzed by LC-MS/MS. The compound concentrations were determined from the ratio of the peak areas of the compound to the internal standard (labetalol) in comparison to the dosing solution.
# The LC-MS/MS system was comprised of an HTS-PAL autosampler (Leap Technologies, Carrboro, N.C.), an HP1200 HPLC (Agilent, Palo Alto, Calif.), and a MDS Sciex 4000 Q Trap system (Applied Biosystems, Foster City, Calif.). […] The total run time, including re-equilibration, for a single injection was 1.2 minutes. Mass spectrometric detection of the analytes was accomplished using the ion spray positive mode. Analyte responses were measured by multiple reaction monitoring (MRM) of transitions unique to each compound (the protonated precursor ion and selected product ions for each test article and m/z 329 to m/z 162 for labetalol, the internal standard).
# The permeability coefficient (Papp) is calculated from the following equation: […]
# where Cd, V, t and C0 are the detected concentration (μM), the volume on the dosing side (mL), the incubation time (s) and the initial dosing concentration (μM), respectively. The calculations for Papp were made for each replicate and then averaged. In this assay, a compound is defined has having high permeability if the permeability is greater than 8×10^−6 cm/sec, a compound is defined has having medium permeability if the permeability is from 2×10^−6 cm/sec to 8×10^−6 cm/sec, and a compound is defined has having low permeability if the permeability is less than 2×10^−6 cm/sec.
# An efflux ratio was calculated from the mean apical to basolateral (A-B) Papp data and basolateral to apical (B-A) Papp data:
# Efflux ratio=Papp(B−A)/Papp(A−B)
# human MET kinase Y1230C = target: T2, human MET kinase Y1230C (Homo sapiens, UniProt P08581, Y1230C); test: c-Met Enzyme Assay, Y1230C mutant; format: binding; settings: averaged IC50; Y1230C 2 nM; 60-minute incubation at 22° C.; read-out: Y1230 C IC50
# T2 construct: GST-tagged recombinant human MET kinase domain; purchased Signal Chem
# T2 sequence (P08581 1078-1345 Y1230C): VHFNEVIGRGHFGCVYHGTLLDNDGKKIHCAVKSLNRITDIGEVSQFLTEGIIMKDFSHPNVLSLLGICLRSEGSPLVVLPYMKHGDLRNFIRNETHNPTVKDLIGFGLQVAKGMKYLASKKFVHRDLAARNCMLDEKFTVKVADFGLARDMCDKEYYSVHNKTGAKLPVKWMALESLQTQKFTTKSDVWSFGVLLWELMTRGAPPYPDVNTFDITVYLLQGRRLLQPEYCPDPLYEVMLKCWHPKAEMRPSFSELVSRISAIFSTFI
# Procedure: (§1) The affinity of compound binding to wild type and mutant human MET kinases was measured using Invitrogen's LanthaScreen™ Eu Kinase Binding technology. Briefly, GST-tagged recombinant human MET kinase domain from Signal Chem (see Table 8 below for concentration in assay) was incubated with 50 nM Alexa-Fluor® Tracer 236 (Invitrogen Cat No. PR9078A) and 2 nM Europium-anti-GST (Invitrogen Cat. No. A15116) along with test compound in a buffer consisting of 25 mM HEPES, pH 7.4, 10 mM MgCl2, 0.01% Triton X-100, 1mM DTT, and 2% DMSO. Compounds were typically prepared in a three-fold serial dilution in DMSO and added to the assay to give the appropriate final concentration. After a 60-minute incubation at 22° C., the reaction was measured using a PerkinElmer EnVision multimode plate reader via TR-FRET dual wavelength detection, and the percent of control (POC) calculated using a ratiometric emission factor. […] The POC values were fit to a 4 parameter logistic curve and the IC50 value is point where the curve crosses 50 POC.
# human MET kinase L1195V = target: T3, human MET kinase L1195V (Homo sapiens, UniProt P08581, L1195V); test: c-Met Enzyme Assay, L1195V mutant; format: binding; settings: averaged IC50; L1195V 10 nM; 60-minute incubation at 22° C.
# T3 construct: GST-tagged recombinant human MET kinase domain; purchased Signal Chem
# T3 sequence (P08581 1078-1345 L1195V limits assumed): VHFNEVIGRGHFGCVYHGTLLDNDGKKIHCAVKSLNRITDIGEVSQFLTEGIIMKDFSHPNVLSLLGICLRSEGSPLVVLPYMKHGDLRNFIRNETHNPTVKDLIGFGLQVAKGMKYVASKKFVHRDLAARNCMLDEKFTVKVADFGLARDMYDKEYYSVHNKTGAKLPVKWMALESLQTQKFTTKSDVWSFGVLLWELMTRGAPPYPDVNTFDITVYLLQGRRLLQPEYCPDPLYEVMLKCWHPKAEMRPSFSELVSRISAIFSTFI
# Procedure: as §1
# [1] = LLC-PK1, efflux ratio = Papp(B-A)/Papp(A-B), read-out: MDR1 Pe Ratio
# [2] = LLC-PK1, Papp(B−A)/Papp(A−B), test article 1 μM, 2 hours, 37° C., read-out: Efflux ratio
Structure (SMILES),"efflux ratio at 2 h, 1 μM (MDR1 (P-gp); [1])","Papp at 2 h, 1 μM (MDR1 (P-gp)) [×10⁻⁶ cm/s]",IC50 (human MET kinase Y1230C) [nM],IC50 (human MET kinase L1195V) [nM],"efflux ratio at 2 h, 1 μM (MDR1 (P-gp); [2])"
"COc1cc2nccc(Oc3ccc(NC(=O)c4cn(C5CCOCC5)cc(-c5ccc(F)cc5)c4=O)nc3)c2cc1OC [Example 12, N-(5((6,7-dimethoxyquinolin-4-yl)oxy)pyridin-2-yl)-5-(4-fluorophenyl)-4-oxo-1-(tetrahydro-2H-pyran-4-yl)-1,4-dihydropyridine-3-carboxamide]",15,13,5.5,33,–
"COc1cc2nccc(Oc3ccc(NC(=O)c4cn(CC(=O)N(C)C)cc(-c5ccc(F)cc5F)c4=O)nc3)c2cc1OC [Example 13, 5-(2,4-difluorophenyl)-N-(5((6,7-dimethoxyquinolin-4-yl)oxy)pyridin-2-yl)-1-(2-(dimethylamino)-2-oxoethyl)-4-oxo-1,4-dihydropyridine-3-carboxamide]",112,6,3.3,83.8,–
COc1cc2nccc(Oc3ccc(NC(=O)c4cn(CC(=O)N5CCCC5)cc(-c5ccc(F)cc5F)c4=O)nc3)c2cc1OC [Example 14],125,10,5.5,187,–
"COc1cc2nccc(Oc3ccc(NC(=O)c4cn(CC(=O)N5CCOCC5)cc(-c5ccc(F)cc5F)c4=O)nc3)c2cc1OC [Example 15, 5-(2,4-difluorophenyl)-N-(5-((6,7-dimethoxyquinolin-4-yl)oxy)pyridin-2-yl)-1-(2-morpholino-2-oxoethyl)-4-oxo-1,4-dihydropyridine-3-carboxamide]",135,2,66.8,61.4,–
"CCC(CC)n1cc(C(=O)Nc2ccc(Oc3ccnc4cc(OC)c(OC)cc34)cn2)c(=O)c(-c2ccc(F)cc2F)c1 [Example 16, 5-(2,4-difluorophenyl)-N-(5-((6,7-dimethoxyquinolin-4yl)oxy)pyridin-2-yl)-4-oxo-1-(pentan-3-yl)-1,4-dihydropyridine-3-carboxamide]",2,4,6.1,34.6,3.5
"CCCC(CCC)n1cc(C(=O)Nc2ccc(Oc3ccnc4cc(OC)c(OC)cc34)cn2)c(=O)c(-c2ccc(F)cc2F)c1 [Example 17, 5-(2,4-difluorophenyl)-N-(5-((6,7-dimethoxyquinolin-4yl)oxy)pyridin-2-yl)-1-(heptan-4-yl)-4-oxo-1,4-dihydropyridine-3-carboxamide]",24,< 1,15.5,82.6,–
"COc1cc2nccc(Oc3ccc(NC(=O)c4cn(C(C)C)cc(-c5ccc(F)cc5Cl)c4=O)nc3)c2cc1OC [Example 18, 5-(2-chloro-4-fluorophenyl)-N-(5-((6,7-dimethoxyquinolin-4-yl)oxy)pyridin-2-yl)-1-isopropyl-4-oxo-1,4-dihydropyridine-3-carboxamide]",2.1,11,2.4,21.4,3.5
"COc1cc2nccc(Oc3ccc(NC(=O)c4cn(C(C)C)cc(-c5ccc(F)cc5C)c4=O)nc3)c2cc1OC [Example 19, N-(5-((6,7-dimethoxyquinolin-4yl)oxy)pyridin-2-yl)-5-(4-fluoro-2-methylphenyl)-1-isopropyl-4-oxo-1,4-dihydropyridine-3-carboxamide]",2.8,11,2,10,3.5
"COc1cc(-c2cn(C(C)C)cc(C(=O)Nc3ccc(Oc4ccnc5cc(OC)c(OC)cc45)cn3)c2=O)ccc1F [Example 20, N-(5-((6,7-dimethoxyquinolin-4yl)oxy)pyridin-2-yl)-5-(4-fluoro-3-methoxyphenyl)-1-isopropyl-4-oxo-1,4-dihydropyridine-3-carboxamide]",3.6,9,7.7,58.1,–
"COc1cc2nccc(Oc3ccc(NC(=O)c4cn(C(C)C)cc(-c5ccc(F)c(Cl)c5)c4=O)nc3)c2cc1OC [Example 21, 5-(3-chloro-4-fluorophenyl)-N-(5-((6,7-dimethoxyquinolin-4-yl)oxy)pyridin-2-yl)-1-isopropyl-4-oxo-1,4-dihydropyridine-3-carboxamide]",1.3,1.2,20.4,77.7,3.5
CNC(=O)Cn1cc(C(=O)Nc2ccc(Oc3ccnc4cc(OC)c(OC)cc34)cn2)c(=O)c(-c2ccc(F)cc2)c1 [Example 22],80,2,2,17.7,–
"COc1cc2nccc(Oc3ccc(NC(=O)c4cn(CC(=O)N(C)C)cc(-c5ccc(F)cc5)c4=O)nc3)c2cc1OC [Example 23, N-(5-((6,7-dimethoxyquinolin-4yl)oxy)pyridin-2-yl)-1-(2-(dimethylamino)-2-oxoethyl)-5-(4-fluorophenyl)-4-oxo-1,4-dihydropyridine-3-carboxamide]",105,6,14.5,39.6,–
"COc1cc2nccc(Oc3ccc(NC(=O)c4cn(CC(=O)N(C)C)cc(-c5ccc(F)c(F)c5)c4=O)nc3)c2cc1OC [Example 24, 5-(3,4-difluorophenyl)-N-(5-((6,7-dimethoxyquinolin-4-yl)oxy)pyridin-2-yl)-1-(2-(dimethylamino)-2-oxoethyl)-4-oxo-1,4-dihydropyridine-3-carboxamide]",210,9.5,14.3,92,–
COc1cc2nccc(Oc3ccc(NC(=O)c4cn(CC(=O)N(C)C)cc(-c5ccc(Cl)cc5)c4=O)nc3)c2cc1OC [Example 25],136,6.4,10.4,18.7,–
